Reference: ChEMBL document CHEMBL1221255, “New halogenated 3-phenylcoumarins as potent and selective MAO-B inhibitors” (Bioorg Med Chem Lett, 2010)

Assays:
[1] = molecular target: T1, Amine oxidase [flavin-containing] B (Homo sapiens, UniProt P27338); assay: Inhibition of human MAOB expressed in BTI insect cells; assay type: cell-based
T1 sequence (P27338 whole entry): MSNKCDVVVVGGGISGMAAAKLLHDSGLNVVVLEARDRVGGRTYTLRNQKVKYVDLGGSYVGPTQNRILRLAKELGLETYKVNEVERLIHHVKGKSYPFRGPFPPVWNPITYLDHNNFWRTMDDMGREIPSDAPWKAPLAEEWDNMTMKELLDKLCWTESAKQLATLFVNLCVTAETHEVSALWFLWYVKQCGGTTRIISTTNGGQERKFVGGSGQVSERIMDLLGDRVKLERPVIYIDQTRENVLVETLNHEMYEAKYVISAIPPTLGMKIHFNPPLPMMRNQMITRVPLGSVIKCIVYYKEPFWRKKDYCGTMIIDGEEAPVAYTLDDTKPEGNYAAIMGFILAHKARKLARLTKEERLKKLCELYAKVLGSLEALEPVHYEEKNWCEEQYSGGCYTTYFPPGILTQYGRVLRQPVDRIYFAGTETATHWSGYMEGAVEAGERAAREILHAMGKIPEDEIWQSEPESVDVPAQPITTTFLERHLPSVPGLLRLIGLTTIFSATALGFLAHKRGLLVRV

Homo sapiens = species: Homo sapiens; assay: Selectivity ratio of IC50 for human MAOA to IC50 for human MAOB
[2] = molecular target: T2, Amine oxidase [flavin-containing] A (Homo sapiens, UniProt P21397); assay: Inhibition of human MAOA expressed in BTI insect cells
T2 sequence (P21397 whole entry): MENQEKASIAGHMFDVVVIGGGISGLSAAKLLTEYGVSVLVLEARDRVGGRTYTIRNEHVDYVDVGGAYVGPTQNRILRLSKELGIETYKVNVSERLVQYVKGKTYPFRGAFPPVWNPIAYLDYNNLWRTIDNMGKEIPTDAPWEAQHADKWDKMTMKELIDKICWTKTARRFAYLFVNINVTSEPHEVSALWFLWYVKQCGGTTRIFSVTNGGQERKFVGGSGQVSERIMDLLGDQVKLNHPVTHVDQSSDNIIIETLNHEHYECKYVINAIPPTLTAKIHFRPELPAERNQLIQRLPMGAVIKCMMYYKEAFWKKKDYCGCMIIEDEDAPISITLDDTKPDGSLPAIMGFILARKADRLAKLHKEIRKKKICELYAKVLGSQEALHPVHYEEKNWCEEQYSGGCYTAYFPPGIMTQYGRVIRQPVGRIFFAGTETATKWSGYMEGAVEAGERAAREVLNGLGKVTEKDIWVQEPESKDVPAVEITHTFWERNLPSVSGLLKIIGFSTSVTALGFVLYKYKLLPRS

[3] = molecular target: T2, Amine oxidase [flavin-containing] A; assay: Inhibition of MAOA expressed in BTI insect cells at 100 uM

SMILES	IC50 [1]	Ratio IC50 (Homo sapiens)	IC50 [2]	IC50 [3]
COc1cc(-c2cc3cc(C)cc(Br)c3oc2=O)cc(OC)c1OC	4890 nM	6.4	31200 nM	
COc1ccc(-c2cc3cc(C)cc(Br)c3oc2=O)cc1	3.23 nM	> 31000		Not Active
Cc1ccc2oc(=O)c(-c3ccccc3Br)cc2c1	4300 nM	> 23		Not Active
Cc1cc(Br)c2oc(=O)c(-c3ccccc3)cc2c1	11.1 nM	> 9050		Not Active
COc1cc(OC)cc(-c2cc3cc(C)cc(Br)c3oc2=O)c1	7.12 nM	> 14000		Not Active
